# Assay results published in US10544090B2, “Anthraquinone analogs and methods of making and using thereof” (Georgia State University Research Foundation, Inc., priority 2012, dated 2020).
# How the values were obtained:
# HeLa [1] = assay: MTT cytotoxicity evaluation of series 1 and 2 rhein analogues, HeLa (Tables 3, 4); type: cell-based; conditions: Homo sapiens, HeLa; MTT; Tables 3 and 4; read-out: IC50 (μM) against HeLa
# MOLT4 [2] = assay: MTT cytotoxicity evaluation of series 1 and 2 rhein analogues, MOLT4 (Tables 3, 4); conditions: Homo sapiens, MOLT-4, read-out: IC50 (μM) against MOLT4
# KB = assay: Cytotoxicity against cancer cell lines (Example 5), KB; type: cell-based; conditions: Tables 5-12
# Method: (§1) All of the compounds synthesized were tested against a number of cancer cell lines: Hela KB, Cos7, Molt4, K562, EU1, and T98G. The cancer cell lines vary from leukemia cell lines (Molt4, EU, K562) to solid-state tumor cell lines (Hela, KB, Cos7) and the drug resistant cell lines (T98G).
# HeLa [3] = assay: Cytotoxicity against cancer cell lines (Example 5), Hela; type: cell-based; conditions: Tables 5-12
# Method: as §1
# MOLT4 [4] = assay: Cytotoxicity against cancer cell lines (Example 5), Molt4; type: cell-based
# Method: as §1
# EU1 = assay: Cytotoxicity against cancer cell lines (Example 5), EU1; type: cell-based; conditions: Tables 5-12
# Method: as §1
# Cos7 = assay: Cytotoxicity against cancer cell lines (Example 5), Cos7; type: cell-based; conditions: Tables 5-12
# Method: as §1
# K562 = assay: Cytotoxicity against cancer cell lines (Example 5), K562; type: cell-based; conditions: Tables 5-12
# Method: as §1
# T98G = assay: Cytotoxicity against cancer cell lines (Example 5), T98G; type: cell-based; conditions: Tables 5-12; drug resistant cell line
# Method: as §1
# [5] = Tables 5-12, read-out: IC50 Molt4
Compound,IC50 (HeLa [1]),IC50 (MOLT4 [2]),IC50 (KB),IC50 (HeLa [3]),IC50 (MOLT4 [4]; [5]),IC50 (EU1),IC50 (Cos7),IC50 (K562),IC50 (T98G),"IC50 (MOLT4 [4]; cell line not given, matches Table 8 Molt4, read-out: IC50 value)"
"CC(C)(C)OCc1ccc(-c2cc(O)c3c(c2)C(=O)c2cccc(O)c2C3=O)cc1 [Compound 26e, 1,8-Dihydroxy-3-(4′-t-butoxymethyl-phenyl)-anthraquinone]",> 100 µM,22 µM,,,,,,,,
C=CC(=O)Nc1cc(OCC)c2c(c1)C(=O)c1cccc(OCC)c1C2=O [BW-AQ-158],,,20.3 µM,19.7 µM,< 3.2 µM,6 µM,8.42 µM,10.7 µM,21 µM,
C=CCOC(=O)c1cc(OCC=C)c2c(c1)C(=O)c1cccc(OCC=C)c1C2=O [BW-AQ-152],,,22.5 µM,27.6 µM,> 25 µM,> 25 µM,12.5 µM,> 25 µM,29.3 µM,
C=CCOc1cccc2c1C(=O)c1c(OCC=C)cc(NC(=O)CI)cc1C2=O [BW-AQ-163],,,14.7 µM,> 50 µM,> 25 µM,> 25 µM,> 50 µM,> 25 µM,> 50 µM,
COc1cccc2c1C(=O)c1c(OC)cc(NC(=O)CCCl)cc1C2=O [BW-AQ-173],,,50 µM,50 µM,> 25 µM,25 µM,,> 25 µM,> 50 µM,
CN1CCN(CC(=O)Nc2cc(O)c3c(c2)C(=O)c2cccc(O)c2C3=O)CC1 [BW-AQ-114],,,10.2 ± 2.26 µM,3.9 ± 1 µM,0.284 ± 0.021 µM,,2 ± 0.6 µM,0.84 ± 0.36 µM,> 12.5 µM,
CCOc1cccc2c1C(=O)c1c(OCC)cc(NC(=O)CCCCl)cc1C2=O [BW-AQ-179],,,< 6.25 µM,6.25 µM,15.3 µM,17.6 µM,,10.7 µM,50 µM,
CCOc1cccc2c1C(=O)c1c(OCC)cc(NC(=O)COCc3ccccc3)cc1C2=O [BW-AQ-182],,,> 50 µM,47.3 µM,16.8 µM,16.8 µM,,> 25 µM,> 50 µM,
C=CCOc1cccc2c1C(=O)c1c(OCC=C)cc(NC(=O)CCl)cc1C2=O [BW-AQ-161],,,> 20 µM,> 20 µM,> 10 µM,> 10 µM,> 20 µM,> 10 µM,> 50 µM,
[N-]=[N+]=NCCOc1cccc2c1C(=O)c1c(OCCN=[N+]=[N-])cc(C(=O)O)cc1C2=O [BW-AQ-121],,,> 50 µM,> 12.5 µM,> 1.6 µM,,> 50 µM,> 6.25 µM,> 12.5 µM,
CCOc1cccc2c1C(=O)c1c(OCC)cc(NC(=O)CO)cc1C2=O [BW-AQ-157],,,9.5 µM,6.35 µM,0.42 µM,0.358 µM,5 µM,1.8 µM,15.4 µM,
C=CCOc1cccc2c1C(=O)c1c(OCC=C)cc(C(=O)O)cc1C2=O [BW-AQ-153],,,> 50 µM,> 50 µM,> 25 µM,> 25 µM,> 50 µM,> 25 µM,> 50 µM,
COc1cccc2c1C(=O)c1c(OC)cc(NC(=O)C(F)(F)F)cc1C2=O [BW-AQ-132],,,> 50 µM,> 50 µM,> 1.6 µM,,> 50 µM,> 6.25 µM,> 12.5 µM,
C=CCOc1cccc2c1C(=O)c1c(OCC=C)cc(C(=O)N=[N+]=[N-])cc1C2=O [BW-AQ-154],,,> 50 µM,24.3 µM,6.66 µM,3 µM,19.4 µM,19.5 µM,> 50 µM,
O=C(CBr)Nc1cc(O)c2c(c1)C(=O)c1cccc(OCc3ccccc3)c1C2=O [BW-AQ-127],,,5.4 ± 2.5 µM,5.6 ± 0.63 µM,,0.084 ± 0.058 µM,1.7 ± 0.43 µM,1.95 ± 0.58 µM,13.8 ± 2.5 µM,0.028 µM
COc1cccc2c1C(=O)c1c(OC)cc(NC(=O)CCCCl)cc1C2=O [BW-AQ-174],,,> 50 µM,> 50 µM,> 25 µM,> 25 µM,,> 25 µM,> 50 µM,
Nc1cc(OCc2ccccc2)c2c(c1)C(=O)c1cccc(OCc3ccccc3)c1C2=O [BW-AQ-150],,,> 50 µM,~50 µM,> 25 µM,> 25 µM,17 µM,> 25 µM,> 50 µM,
O=C1c2cccc(O)c2C(=O)c2c(O)cc(-c3cccs3)cc21 [BW-AQ-140],,,3.4 ± 1.02 µM,3.1 ± 0.68 µM,0.209 ± 0.044 µM,0.69 ± 0.152 µM,2.2 ± 0.41 µM,3.2 ± 1.5 µM,13.8 ± 4 µM,

Compound,IC50 (HeLa [1]),IC50 (MOLT4 [2]),IC50 (KB),IC50 (HeLa [3]),IC50 (MOLT4 [4]; [5]),IC50 (EU1),IC50 (Cos7),IC50 (K562),IC50 (T98G),"IC50 (MOLT4 [4]; cell line not given, matches Table 8 Molt4, read-out: IC50 value)"
O=C(OCc1ccccc1)c1cc(OCc2ccccc2)c2c(c1)C(=O)c1cccc(OCc3ccccc3)c1C2=O [BW-AQ-148],,,> 50 µM,18.6 µM,> 25 µM,> 25 µM,> 50 µM,> 25 µM,> 50 µM,
COc1cccc2c1C(=O)c1c(OC)cc(NC(=O)COCc3ccccc3)cc1C2=O [BW-AQ-175],,,33.6 µM,> 50 µM,25 µM,20.5 µM,,> 25 µM,> 50 µM,
COc1cccc2c1C(=O)c1c(OC)cc(NC(=O)CN=[N+]=[N-])cc1C2=O [BW-AQ-137],,,23.6 µM,24.6 µM,> 1.6 µM,,> 50 µM,> 6.25 µM,> 50 µM,
CCOc1cccc2c1C(=O)c1c(OCC)cc(NC(=O)CNC)cc1C2=O [BW-AQ-167],,,1.54 µM,0.753 µM,21.5 µM,13.6 µM,5.51 µM,2.05 µM,11.2 µM,
COc1cccc2c1C(=O)c1c(OC)cc(N)cc1C2=O [BW-AQ-145],,,> 50 µM,> 50 µM,> 25 µM,> 25 µM,> 50 µM,> 25 µM,> 50 µM,
COc1cccc2c1C(=O)c1c(OC)cc(NS(=O)(=O)CCl)cc1C2=O [BW-AQ-138],,,> 50 µM,> 50 µM,> 1.6 µM,,> 50 µM,> 6.25 µM,> 50 µM,
COc1cccc2c1C(=O)c1c(OC)cc(NC(=O)C(F)F)cc1C2=O [BW-AQ-171],,,50 µM,> 50 µM,> 25 µM,> 25 µM,,> 25 µM,> 50 µM,
[N-]=[N+]=NCCOc1cccc2c1C(=O)c1c(OCCN=[N+]=[N-])cc(C(=O)N=[N+]=[N-])cc1C2=O [BW-AQ-122],,,> 50 µM,> 12.5 µM,> 1.6 µM,,> 50 µM,> 6.25 µM,> 12.5 µM,
COc1cccc2c1C(=O)c1c(OC)cc(NC(C)=O)cc1C2=O [BW-AQ-134],,,> 50 µM,> 50 µM,> 1.6 µM,,> 50 µM,> 6.25 µM,> 50 µM,
COc1cccc2c1C(=O)c1c(OC)cc(NC(=O)CC#N)cc1C2=O [BW-AQ-172],,,< 6.25 µM,> 50 µM,> 25 µM,> 25 µM,,> 25 µM,> 50 µM,
CCOc1cccc2c1C(=O)c1c(OCC)cc(NC(=O)CN)cc1C2=O [BW-AQ-166],,,18.8 µM,11 µM,> 25 µM,> 25 µM,,> 25 µM,37.3 µM,
CCCOC(=O)c1cc(OCCC)c2c(c1)C(=O)c1cccc(OCCC)c1C2=O [BW-AQ-147],,,> 50 µM,> 50 µM,> 25 µM,> 25 µM,,> 25 µM,> 50 µM,
C=CCOc1cccc2c1C(=O)c1c(OCC=C)cc(N)cc1C2=O [BW-AQ-155],,,12.5 µM,~50 µM,> 25 µM,> 25 µM,> 50 µM,> 25 µM,> 50 µM,
[N-]=[N+]=NC(=O)c1cc(OCc2ccccc2)c2c(c1)C(=O)c1cccc(OCc3ccccc3)c1C2=O [BW-AQ-149],,,> 50 µM,> 50 µM,> 25 µM,> 25 µM,> 50 µM,> 25 µM,> 50 µM,
C=CCOc1cccc2c1C(=O)c1c(OCC=C)cc(NC(=O)CN=[N+]=[N-])cc1C2=O [BW-AQ-164],,,> 50 µM,> 50 µM,> 25 µM,> 25 µM,> 50 µM,> 25 µM,> 50 µM,
[N-]=[N+]=NCCOc1cccc2c1C(=O)c1c(OCCN=[N+]=[N-])cc(N)cc1C2=O [BW-AQ-123],,,20.5 µM,> 50 µM,> 1.6 µM,,,> 6.25 µM,> 12.5 µM,
COC(=O)c1cc(OCCN=[N+]=[N-])c2c(c1)C(=O)c1cccc(OCCN=[N+]=[N-])c1C2=O [BW-AQ-120],,,> 50 µM,> 12.5 µM,> 1.6 µM,,~50 µM,> 6.25 µM,> 12.5 µM,
COCC(=O)Nc1cc(OC)c2c(c1)C(=O)c1cccc(OC)c1C2=O [BW-AQ-170],,,> 50 µM,> 50 µM,> 25 µM,> 25 µM,,> 25 µM,> 50 µM,
